# Assay results: PMC7233811, “Small molecule inhibits T-cell acute lymphoblastic leukaemia oncogenic interaction through conformational modulation of LMO2” (Oncotarget, 2020)
# Legend:
# [1] = molecular target: T1, LMO2 (LIM only protein 2) (Homo sapiens, UniProt P25791); test: microscale thermophoresis (NT647-labelled protein); supported by STD-NMR, SAXS and HTRF PPI inhibition (IC50 […]); format: binding
# T1 construct: tandem LIM-domain construct of LMO2 fused to the LDB1^LID (FLINC2); with LDB1 LID (fused)
# T1 sequence (P25791 30-153 limits assumed): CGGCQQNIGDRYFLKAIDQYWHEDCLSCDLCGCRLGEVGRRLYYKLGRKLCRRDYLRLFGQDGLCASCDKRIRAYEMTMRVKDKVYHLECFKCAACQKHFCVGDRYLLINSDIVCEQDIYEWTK
# T1 sequence (Q86U70 336-375 partner limits assumed): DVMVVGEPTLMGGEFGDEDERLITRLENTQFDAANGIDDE
# [2] = molecular target: SCL/E2A complex (Homo sapiens) (UniProt P17542); test: given as Ka; details: cited from earlier work
# Chain of SCL/E2A complex (Homo sapiens) (P17542 whole entry, chain 1 of 2): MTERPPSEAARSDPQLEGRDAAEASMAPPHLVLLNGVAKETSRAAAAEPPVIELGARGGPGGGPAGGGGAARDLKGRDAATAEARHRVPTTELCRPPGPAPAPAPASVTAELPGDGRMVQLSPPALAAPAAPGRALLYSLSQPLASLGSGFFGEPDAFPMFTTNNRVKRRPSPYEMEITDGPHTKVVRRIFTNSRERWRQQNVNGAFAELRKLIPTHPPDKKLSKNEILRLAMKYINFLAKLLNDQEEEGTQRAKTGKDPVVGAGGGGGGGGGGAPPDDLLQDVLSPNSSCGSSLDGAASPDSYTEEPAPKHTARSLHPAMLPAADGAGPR
# Chain of SCL/E2A complex (Homo sapiens) (P15923 whole entry, chain 2 of 2, further chain): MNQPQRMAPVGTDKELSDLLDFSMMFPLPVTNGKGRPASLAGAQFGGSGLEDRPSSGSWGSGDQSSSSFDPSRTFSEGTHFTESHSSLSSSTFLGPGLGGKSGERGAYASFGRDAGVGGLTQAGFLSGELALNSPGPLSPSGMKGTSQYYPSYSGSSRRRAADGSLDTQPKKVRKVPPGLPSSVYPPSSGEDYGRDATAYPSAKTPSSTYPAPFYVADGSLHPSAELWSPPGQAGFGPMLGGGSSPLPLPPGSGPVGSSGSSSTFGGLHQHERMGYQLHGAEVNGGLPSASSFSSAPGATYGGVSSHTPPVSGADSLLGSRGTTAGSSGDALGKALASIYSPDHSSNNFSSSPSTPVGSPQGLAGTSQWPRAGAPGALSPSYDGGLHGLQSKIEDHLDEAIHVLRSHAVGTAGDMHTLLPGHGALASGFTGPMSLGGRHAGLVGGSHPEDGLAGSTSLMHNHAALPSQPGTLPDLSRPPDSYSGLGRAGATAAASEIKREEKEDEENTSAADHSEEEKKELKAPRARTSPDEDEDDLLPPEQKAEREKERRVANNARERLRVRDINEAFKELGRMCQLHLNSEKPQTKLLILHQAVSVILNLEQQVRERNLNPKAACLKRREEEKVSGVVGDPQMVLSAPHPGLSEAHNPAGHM
# Chain of LMO2 (P25791 whole entry, the tested form may be a part): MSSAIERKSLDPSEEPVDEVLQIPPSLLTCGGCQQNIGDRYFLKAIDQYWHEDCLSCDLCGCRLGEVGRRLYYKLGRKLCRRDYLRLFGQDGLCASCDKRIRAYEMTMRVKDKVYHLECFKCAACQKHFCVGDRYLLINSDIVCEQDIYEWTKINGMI
Compound,Kd [1] [nM],Kd [2] [nM]
Cc1cc(C)cc(C2(C(=O)N3CCOCC(Cc4ccc5nccn5c4)C3)CCOCC2)c1 (centres unmarked) [3K7],1200,–
LMO2 (from UniProt P25791),–,5.56
